Experimental data as given in ChEMBL document CHEMBL3217501, “Synthesis and biological evaluation of tetrazole containing compounds as possible anticancer agents” (Medchemcomm, 2011).
Active and inactive are the calls of the source. The rule behind the calls is not given here.

Tests used:
A549 = assay: Cytotoxicity against human A549 cells assessed as growth inhibition after 48 hrs by SRB assay; format: functional, cell-based; details: A549, 48 h
MDA-MB-231 = assay: Cytotoxicity against human MDA-MB-231 cells assessed as growth inhibition after 48 hrs by SRB assay; format: functional, cell-based; details: MDA-MB-231, 48 h
HepG2 = assay: Cytotoxicity against human HepG2 cells assessed as growth inhibition after 48 hrs by SRB assay; format: functional, cell-based; details: HepG2, 48 h
SK-N-SH = assay: Cytotoxicity against human SK-N-SH cells assessed as growth inhibition after 48 hrs by SRB assay; format: functional, cell-based
DU-145 = assay: Cytotoxicity against human DU145 cells assessed as growth inhibition after 48 hrs by SRB assay; format: functional, cell-based; details: DU-145, 48 h
Calf thymus DNA [1] = assay: Binding affinity to calf thymus DNA assessed as compound-DNA complex formation by UV-Vis absorption spectroscopic analysis; format: nucleic-acid assay; details: Bos taurus
Calf thymus DNA [2] = assay: Binding affinity to calf thymus DNA by fluorescence spectroscopic analysis; format: nucleic-acid assay; details: Bos taurus

Kb (Calf thymus DNA [1]) [×10⁵ /M]	Activity (Calf thymus DNA [2])	Structure (SMILES)	IC50 (A549) [µM]	IC50 (MDA-MB-231) [µM]	IC50 (HepG2) [µM]	IC50 (SK-N-SH) [µM]	IC50 (DU-145) [µM]
		COC(=O)/C(=C/c1ccc(F)cc1)Cn1cnnn1	6.9	15.9	12.1	18.3	8.57
		COC(=O)/C(=C/c1ccc([N+](=O)[O-])cc1)Cn1cnnn1	2.84	9.14	2.07	22.3	5.5
		COC(=O)/C(=C/c1ccc(C)cc1)Cn1cnnn1	16	62.6	10.7	71.7	8.42
		Cc1ccc(/C=C(\C#N)Cn2cnnn2)cc1	7.95	25.7	6.56	20.1	7.3
		CCOC(=O)/C(=C/c1ccccc1Br)Cn1cnnn1	5.94	14.8	3.33	16.3	7.79
		COc1cc([C@@H]2c3cc4c(cc3[C@H](O)[C@H]3COC(=O)[C@H]23)OCO4)cc(OC)c1OC [PODOFILOX]	< 0.1	< 0.1	< 0.1	< 0.1	< 0.1
		N#C/C(=C\c1cccc2ccccc12)Cn1cnnn1	5.7	31.4	7.11	16.9	7.36
		CCOC(=O)/C(=C/c1ccc(Cl)cc1)Cn1cnnn1	3.18	23.9	3	28.2	8.44
		Cc1nnnn1C/C(C#N)=C/c1ccc(F)cc1	6.4	28.8	7.29	20.2	7.19
		COC(=O)/C(=C/c1ccccc1)Cn1cnnn1	7.91	16.4	10.7	31.6	9.02
		COC(=O)Nc1nc2cc(C(=O)c3cccs3)ccc2[nH]1 [NOCODAZOLE]	< 0.1	< 0.1	< 0.1	< 0.1	< 0.1
		COc1ccc(/C=C(\C#N)Cn2cnnn2)cc1	23.8	20.3	27.4	64.2	19.4
		CCOC(=O)/C(=C/c1ccc(Br)cc1)Cn1cnnn1	4.78	18.9	4.89	27.3	5.5
		N#C/C(=C\c1ccccc1)Cn1cnnn1	9.99	18.4	5.83	23.3	9.45
		N#C/C(=C\c1ccc(C(F)(F)F)cc1)Cn1cnnn1	3.51	8.7	1.65	11.8	5.92
		COC(=O)/C(=C/c1ccccc1[N+](=O)[O-])Cn1cnnn1	6.88	43.7	4.33	19.8	10.2
0.75	Active	Cc1nnnn1C/C(C#N)=C/c1cccc2ccccc12	2.95	14.1	2.6	13.7	5.76
		COC(=O)/C(=C/c1ccc(OC)cc1)Cn1cnnn1	3.83	21	6.65	7.9	5.6
